From ChEMBL document CHEMBL4373729, “Natural dimers of coumarin, chalcones, and resveratrol and the link between structure and pharmacology” (Eur J Med Chem, 2019)
pEC50, pIC50: −log10 of the molar value. ≈ marks a conversion by molar mass, not a printed value. One block for each compound: values may come before it.

Tests used:
KB = assay: Cytotoxicity against human KB cells assessed as reduction in cell viability; format: functional, cell-based
NCI-H187 = assay: Cytotoxicity against human NCI-H187 cells assessed as reduction in cell viability; format: functional, cell-based
Plasmodium falciparum = assay: Antiplasmodial activity against multidrug-resistant Plasmodium falciparum K1 by [3H]-hypoxanthine incorporation assay; format: functional, organism-based
Alpha glucosidase [1] = target: T1, Alpha glucosidase (Homo sapiens, UniProt O43451+P10253+P14410+Q2M2H8); assay: Inhibition of alpha-glucosidase (unknown origin) using 4-nitrophenyl alpha-D-glucopyranoside as substarte preincubated for 10 mins followed by substrate addition measured after 30 mins; format: protein assay
Cathepsin L2 = target: T2, Cathepsin L2 (Homo sapiens, UniProt O60911); assay: Inhibition of recombinant human cathepsin V using Z-Phe-Arg-7-amido-4-methylcoumarin as substrate by fluorescence assay
T2 sequence (O60911 whole entry): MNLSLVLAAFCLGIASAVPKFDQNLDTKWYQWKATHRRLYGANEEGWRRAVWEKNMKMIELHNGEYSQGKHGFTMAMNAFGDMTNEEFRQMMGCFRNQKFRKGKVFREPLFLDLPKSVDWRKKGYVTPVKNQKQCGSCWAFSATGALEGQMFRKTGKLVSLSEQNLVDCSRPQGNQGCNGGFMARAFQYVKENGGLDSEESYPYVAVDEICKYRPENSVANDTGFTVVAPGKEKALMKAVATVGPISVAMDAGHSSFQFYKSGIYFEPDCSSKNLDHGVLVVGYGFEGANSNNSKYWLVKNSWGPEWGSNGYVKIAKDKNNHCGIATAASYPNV

Alpha glucosidase [2] = target: T1, Alpha glucosidase; assay: Inhibition of alpha-glucosidase (unknown origin); format: protein assay
[3] = target: Glucagon-like peptide 1 receptor (Homo sapiens, UniProt P43220); assay: Agonist activity at human GLP1 receptor
[4] = Inhibition of yeast alpha-glucosidase using p-nitrophenyl-alpha-D-glucopyranoside as substarte preincubated for 0.5 hrs followed by substrate addition measured after 0.5 hrs; design: species or system Saccharomyces cerevisiae
Saccharomyces cerevisiae = assay: Inhibition of yeast alpha-glucosidase using p-nitrophenyl-alpha-D-glucopyranoside as substarte preincubated for 0.5 hrs followed by substrate addition measured after 0.5 hrs relative to control; settings: concentration not given here
[5] = target: T3, DNA topoisomerase 2-alpha (Homo sapiens, UniProt P11388); assay: Inhibition of topoisomerase 2 (unknown origin)
[6] = target: T3, DNA topoisomerase 2-alpha; assay: Inhibition of human topoisomerase 2 by fluorescence method
[7] = target: Human immunodeficiency virus type 1 reverse transcriptase (Human immunodeficiency virus 1, UniProt Q72547); assay: Inhibition of HIV-1 reverse transcriptase

T3 sequence (P11388 whole entry): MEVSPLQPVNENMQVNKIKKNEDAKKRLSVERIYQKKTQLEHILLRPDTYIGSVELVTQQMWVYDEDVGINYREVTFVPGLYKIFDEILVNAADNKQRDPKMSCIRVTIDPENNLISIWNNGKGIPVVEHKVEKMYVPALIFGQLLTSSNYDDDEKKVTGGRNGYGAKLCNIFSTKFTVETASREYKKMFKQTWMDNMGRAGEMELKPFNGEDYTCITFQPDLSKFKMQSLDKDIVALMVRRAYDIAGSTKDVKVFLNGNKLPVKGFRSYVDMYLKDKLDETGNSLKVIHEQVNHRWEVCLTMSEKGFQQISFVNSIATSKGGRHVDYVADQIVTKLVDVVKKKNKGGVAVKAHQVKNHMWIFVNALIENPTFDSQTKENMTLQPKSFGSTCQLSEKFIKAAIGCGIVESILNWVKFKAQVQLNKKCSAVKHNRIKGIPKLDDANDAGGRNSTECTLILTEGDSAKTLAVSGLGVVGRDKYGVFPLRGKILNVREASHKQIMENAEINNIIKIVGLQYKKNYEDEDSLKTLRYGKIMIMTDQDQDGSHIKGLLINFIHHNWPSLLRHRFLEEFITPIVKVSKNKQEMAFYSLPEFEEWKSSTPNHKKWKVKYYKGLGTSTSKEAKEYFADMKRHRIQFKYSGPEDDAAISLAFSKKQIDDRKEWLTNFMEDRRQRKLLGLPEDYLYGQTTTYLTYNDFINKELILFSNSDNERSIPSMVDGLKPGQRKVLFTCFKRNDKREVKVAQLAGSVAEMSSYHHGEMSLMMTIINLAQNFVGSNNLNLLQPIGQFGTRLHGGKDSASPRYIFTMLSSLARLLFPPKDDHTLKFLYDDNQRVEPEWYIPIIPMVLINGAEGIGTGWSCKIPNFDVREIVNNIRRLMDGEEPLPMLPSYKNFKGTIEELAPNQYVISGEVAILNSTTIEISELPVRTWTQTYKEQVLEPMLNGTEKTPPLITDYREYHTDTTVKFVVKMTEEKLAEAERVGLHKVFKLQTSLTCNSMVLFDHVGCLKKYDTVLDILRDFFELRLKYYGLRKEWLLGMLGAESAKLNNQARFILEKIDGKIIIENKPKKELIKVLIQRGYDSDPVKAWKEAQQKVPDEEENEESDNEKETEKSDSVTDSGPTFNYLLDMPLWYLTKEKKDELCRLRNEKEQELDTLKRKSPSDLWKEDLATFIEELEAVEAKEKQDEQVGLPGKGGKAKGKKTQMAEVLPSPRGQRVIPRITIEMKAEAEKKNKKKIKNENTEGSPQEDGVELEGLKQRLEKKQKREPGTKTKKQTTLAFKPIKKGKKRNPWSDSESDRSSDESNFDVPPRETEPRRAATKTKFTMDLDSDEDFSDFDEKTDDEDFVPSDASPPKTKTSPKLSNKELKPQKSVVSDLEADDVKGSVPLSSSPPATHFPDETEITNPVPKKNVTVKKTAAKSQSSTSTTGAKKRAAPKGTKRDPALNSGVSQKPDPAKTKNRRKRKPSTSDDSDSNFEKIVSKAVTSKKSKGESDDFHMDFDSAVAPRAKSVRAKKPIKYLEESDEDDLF
Glucagon-like peptide 1 receptor, sequence (P43220 whole entry): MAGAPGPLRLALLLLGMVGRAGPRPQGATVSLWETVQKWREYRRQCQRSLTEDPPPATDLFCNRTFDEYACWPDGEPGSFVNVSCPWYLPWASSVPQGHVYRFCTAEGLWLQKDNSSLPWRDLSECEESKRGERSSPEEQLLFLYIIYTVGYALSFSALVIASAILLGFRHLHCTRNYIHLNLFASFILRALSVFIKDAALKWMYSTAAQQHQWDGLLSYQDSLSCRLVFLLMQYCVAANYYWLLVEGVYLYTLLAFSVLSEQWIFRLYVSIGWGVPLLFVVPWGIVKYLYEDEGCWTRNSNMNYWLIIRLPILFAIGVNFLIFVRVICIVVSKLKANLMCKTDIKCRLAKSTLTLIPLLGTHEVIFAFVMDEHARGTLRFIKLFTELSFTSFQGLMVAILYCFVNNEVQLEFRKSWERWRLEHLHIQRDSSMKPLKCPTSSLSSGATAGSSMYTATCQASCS

SMILES: C=CC(C)(C)c1c2c(c(O)c3c1OC(C)(C)C=C3)C=C([C@H]1CC(C)(C)Oc3c1c(O)c1ccc(=O)oc1c3C(C)(C)C=C)CO2
IC50 (KB): 5.95 µg/mL (≈ 9.74 µM)
IC50 (NCI-H187): 7.1 µg/mL (≈ 11.6 µM)

SMILES: COc1cc(OC)c([C@@H]2Oc3c(OC)c(OC)cc(OC)c3[C@@H](/C=C/c3ccccc3)[C@H]2C(=O)c2ccccc2)c(O)c1OC
IC50 (Plasmodium falciparum): 3.02 to 4.21 µg/mL (≈ 4.93 to 6.87 µM)

IC50 (Alpha glucosidase [1]): 231 µg/mL (≈ 334 µM)
SMILES: COc1cc2cc(Oc3cc(O[C@@H]4O[C@H](CO)[C@@H](O)[C@H](O)[C@H]4O[C@@H]4O[C@H](CO)[C@@H](O)[C@H](O)[C@H]4O)c4ccc(=O)oc4c3)c(=O)oc2cc1O

IC50 (Alpha glucosidase [1]): 760 µg/mL (≈ 1570 µM)
SMILES: O=c1ccc2ccc(O)c(-c3c(OC4O[C@H](CO)[C@@H](O)[C@H](O)[C@H]4O)ccc4ccc(=O)oc34)c2o1 (stereo partly specified)

pIC50 (Cathepsin L2): 6.15
SMILES: O=C1c2ccc(O)cc2OC2c3cc(O)c(O)cc3[C@@H](c3ccc(O)cc3)[C@@H](C(=O)c3ccc(O)cc3O)C12 (stereo partly specified)

pIC50 (Alpha glucosidase [2]): 5.01 to 5.06
SMILES: C=C(C)C(COc1c2occc2cc2ccc(=O)oc12)OC(C)(C)[C@H](O)COc1c2ccoc2cc2oc(=O)ccc12 (stereo partly specified)

pEC50 [3]: 6.07
SMILES: COc1cc([C@H]2[C@](NC(=O)c3ccc(NC(=O)OC(C)(C)C)cc3)(C(=O)O)[C@@H](c3ccc(OC(=O)c4cccs4)c(OC)c3)[C@]2(NC(=O)c2ccc(NC(=O)OC(C)(C)C)cc2)C(=O)O)ccc1OC(=O)c1cccs1

pIC50 [4]: 4.79
inhibition (Saccharomyces cerevisiae): > 65%
SMILES: Cc1c(-c2c(O)ccc3c(C)cc(=O)oc23)c(=O)oc2cc(O)ccc12

pIC50 [5]: 5.68
pIC50 [6]: 4.82
SMILES: O=C(/C=C/c1ccc(O)cc1)c1ccc2c(c1O)[C@H](C(=O)c1ccc(O)cc1O)[C@@H](c1ccc(O)cc1)O2

pIC50 (Cathepsin L2): 5.85
SMILES: O=C(c1ccc(O)cc1O)[C@@H]1[C@H](c2ccc(O)cc2)c2cc(O)c(O)cc2[C@H](O)[C@@H]1C(=O)c1ccc(O)cc1

SMILES: COc1cc(OC)c(OC)c2c1C[C@H]1[C@@H](/C=C/c3ccccc3)c3c(OC)cc(OC)c(OC)c3O[C@@]1(c1ccccc1)O2
IC50 (Plasmodium falciparum): 3.02 to 4.21 µg/mL (≈ 5.06 to 7.06 µM)

pIC50 [7]: 5.10
SMILES: Oc1ccc(/C=C/c2cc(O)c3c(-c4cc(O)cc(O)c4)c(-c4ccc(O)cc4)oc3c2)cc1

pEC50 [3]: 6.69
SMILES: COc1cc([C@H]2[C@](NC(=O)c3ccc(NC(=O)C(C)C)cc3)(C(=O)O)[C@@H](c3ccc(OC(=O)c4cccs4)c(OC)c3)[C@]2(NC(=O)c2ccc(NC(=O)C(C)C)cc2)C(=O)O)ccc1OC(=O)c1cccs1

pIC50 [6]: 4.84
SMILES: O=C(/C=C/c1ccc(O)cc1)c1cc2c(cc1O)O[C@H](c1ccc(O)cc1)[C@H]2C(=O)c1ccc(O)cc1O

SMILES: COc1cc(OC)c2c(c1OC)O[C@H]1c3c(OC)cc(OC)c(OC)c3O[C@H](c3ccccc3)[C@H]1[C@@H]2/C=C/c1ccccc1 [DEPENDENSIN]
IC50 (Plasmodium falciparum): 3.02 to 4.21 µg/mL (≈ 5.06 to 7.06 µM)

IC50 (Alpha glucosidase [1]): 780 µg/mL (≈ 1210 µM)
SMILES: O=c1ccc2ccc(Oc3cc4ccc(O)c(-c5c(OC6O[C@H](CO)[C@@H](O)[C@H](O)[C@H]6O)ccc6ccc(=O)oc56)c4oc3=O)cc2o1 (stereo partly specified)

pIC50 [4]: 4.43
inhibition (Saccharomyces cerevisiae): > 65%
SMILES: Cc1cc(=O)oc2cc(O)c(-c3c(C)c4ccc(O)cc4oc3=O)cc12

SMILES: COc1cc(OC)c([C@@H]2Oc3c(OC)c(OC)cc(OC)c3[C@H](/C=C/c3ccccc3)[C@@H]2C(=O)c2ccccc2)c(O)c1OC
IC50 (Plasmodium falciparum): 3.02 to 4.21 µg/mL (≈ 4.93 to 6.87 µM)

pIC50 (Alpha glucosidase [2]): 5.01 to 5.06
SMILES: C=C(C)C(COc1c2ccoc2cc2oc(=O)ccc12)OC(C)(C)C(O)COc1c2occc2c(OC)c2ccc(=O)oc12 (stereo unspecified)

SMILES: COc1cc(OC)c2c(c1OC)C=C(C(=O)c1ccccc1)C1(C=C(c3ccccc3)Oc3c(OC)c(OC)cc(OC)c31)O2 (stereo unspecified)
IC50 (Plasmodium falciparum): 3.02 to 4.21 µg/mL (≈ 4.96 to 6.92 µM)

pIC50 (Alpha glucosidase [2]): 5.01 to 5.06
SMILES: C=C(C)C(COc1c2occc2c(OC)c2ccc(=O)oc12)OC(C)(C)[C@H](O)COc1c2ccoc2cc2oc(=O)ccc12 (stereo partly specified)

pIC50 (Cathepsin L2): 6.38
SMILES: O=C(c1ccc(O)cc1O)[C@H]1[C@H](c2ccc(O)cc2)c2cc(O)c(O)cc2[C@H](O)[C@]1(O)C(=O)c1ccc(O)cc1
